Earlier results in patent US6809181B2, “Human beta-defensin-3 (HBD-3), a highly cationic beta-defensin antimicrobial peptide” (University of Iowa Research Foundation, priority 2000, dated 2004).
Converted amounts (≈) assume the structure as drawn. Where two headings read alike, the source gives them in different places.

Experiments:
[1] = test system: Haemophilus influenzae (penicillin resistant); conditions: n=20, r66, cited from earlier work
[2] = test system: Staphylococcus aureus (methicillin susceptible); conditions: unit assumed, cited from earlier work
Streptococcus spp. = conditions: cited from earlier work; for MIC50 / MIC90: unit assumed
Streptococcus agalactiae = conditions: cited from earlier work
[3] = test system: Staphylococcus coagulase f; conditions: unit assumed; cited from earlier work
Campylobacter pylori = conditions: n=56, r43, cited from earlier work
Streptococcus pyogenes = conditions: cited from earlier work
Bordetella parapertussis = conditions: n=46; r9; unit assumed; cited from earlier work
Haemophilus influenzae = conditions: cited from earlier work; for MIC50 / MIC90: unit assumed
Enterococcus spp. = conditions: n=35, r52, cited from earlier work
[4] = test system: Branhamella (Moraxella) catarrhalis (β-lactamase producer); conditions: cited from earlier work
Bordetella pertussis = conditions: n=32; r10; unit assumed; cited from earlier work
Corynebacterium JK = conditions: n=19; r46; unit assumed; cited from earlier work
[5] = test system: Haemophilus influenzae (non β-lactamase producer); conditions: n=137; r58; cited from earlier work
Neisseria gonorrhoeae = conditions: n=19, r81, cited from earlier work
Bacillus spp. = conditions: cited from earlier work
Streptococcus pneumoniae = conditions: cited from earlier work; for MIC90: unit assumed
[6] = test system: Staphylococcus aureus (methicillin resistant); conditions: cited from earlier work
Neisseria meningitidis = conditions: n=19, r90, cited from earlier work
[7] = test system: Branhamella (Moraxella) catarrhalis; conditions: n=20, unit assumed, cited from earlier work
Mycoplasma pneumoniae = conditions: cited from earlier work
Staphylococcus hominis = conditions: n=20; r122; unit assumed; cited from earlier work
Enterococcus faecium = conditions: n=14, r51, cited from earlier work
Ureaplasma urealyticum = conditions: unit assumed, cited from earlier work
Borrelia burgdorferi = conditions: n=10; r12; unit assumed; cited from earlier work
Listeria monocytogenes = conditions: cited from earlier work; for MIC50 / MIC90: unit assumed
Staphylococcus aureus = conditions: unit assumed, cited from earlier work
[8] = test system: Haemophilus parainfluenzae; conditions: n=13, r68, cited from earlier work

## CC[C@H]1OC(=O)[C@H](C)[C@@H](O[C@H]2C[C@@](C)(OC)[C@@H](O)[C@H](C)O2)[C@H](C)[C@@H](O[C@@H]2O[C@H](C)C[C@H](N(C)C)[C@H]2O)[C@](C)(O)C[C@@H](C)C(=O)[C@H](C)[C@@H](O)[C@]1(C)O [ERYTHROMYCIN, erythromycin]
[1]
  Range: 8-16
[1]; unit assumed
  MIC50: 8 µg/mL (≈ 10.9 µM)
  MIC90: 16 µg/mL (≈ 21.8 µM)
[2]; n=20, r104
  MIC50: 0.5 µg/mL (≈ 0.681 µM)
  MIC90: 0.5 µg/mL (≈ 0.681 µM)
[2]; n=28, r100
  MIC50: 0.25 µg/mL (≈ 0.341 µM)
  MIC90: 0.5 µg/mL (≈ 0.681 µM)
[2]; n=97, r102
  MIC50: 0.25 µg/mL (≈ 0.341 µM)
Streptococcus spp.; n=22, r135
  Range: 0.015-0.25
  MIC50: 0.03 µg/mL (≈ 0.0409 µM)
  MIC90: 0.06 µg/mL (≈ 0.0818 µM)
Streptococcus spp.; n=107, r136
  Range: 0.004-2
  MIC50: 0.03 µg/mL (≈ 0.0409 µM)
  MIC90: 1 µg/mL (≈ 1.36 µM)
Streptococcus agalactiae; n=20, r123
  Range: 0.03-0.25
Streptococcus agalactiae; n=20, r123, unit assumed
  MIC50: 0.03 µg/mL (≈ 0.0409 µM)
Streptococcus agalactiae; n=34, r124
  Range: 0.015-0.06
Streptococcus agalactiae; n=34, r124, unit assumed
  MIC50: 0.03 µg/mL (≈ 0.0409 µM)
  MIC90: 0.03 µg/mL (≈ 0.0409 µM)
[3]
  MIC50: 0.25 µg/mL (≈ 0.341 µM)
Campylobacter pylori
  Range: 0.25-16
Campylobacter pylori; unit assumed
  MIC50: 0.5 µg/mL (≈ 0.681 µM)
  MIC90: 1 µg/mL (≈ 1.36 µM)
Streptococcus pyogenes; n=19, r131
  Range: 0.03-0.25
Streptococcus pyogenes; n=20, r132
  Range: 0.03-0.25
Streptococcus pyogenes; n=20, r134
  Range: 0.06-32
Streptococcus pyogenes; n=20, r134, unit assumed
  MIC90: 32 µg/mL (≈ 43.6 µM)
Streptococcus pyogenes; n=33, r133
  Range: 0.015-0.03
Streptococcus pyogenes; n=33, r133, unit assumed
  MIC50: 0.03 µg/mL (≈ 0.0409 µM)
  MIC90: 0.03 µg/mL (≈ 0.0409 µM)
Bordetella parapertussis
  MIC50: 0.25 µg/mL (≈ 0.341 µM)
Haemophilus influenzae; n=97, r55
  Range: 0.25-16
  MIC50: 1 µg/mL (≈ 1.36 µM)
  MIC90: 4 µg/mL (≈ 5.45 µM)
Haemophilus influenzae; n=145, r54
  Range: 0.5-8
  MIC50: 2 µg/mL (≈ 2.73 µM)
  MIC90: 2 µg/mL (≈ 2.73 µM)
Enterococcus spp.
  Range: 0.06-32
Enterococcus spp.; unit assumed
  MIC50: 2 µg/mL (≈ 2.73 µM)
  MIC90: 32 µg/mL (≈ 43.6 µM)
[4]; n=47, r29
  Range: 0.06-1
[4]; n=58, r32
  Range: 0.03-0.25
[4]; n=160, r35
  Range: 0.06-8
Bordetella pertussis
  MIC50: 0.25 µg/mL (≈ 0.341 µM)
Corynebacterium JK
  MIC50: 2 µg/mL (≈ 2.73 µM)
[5]
  Range: 0.06-8
Neisseria gonorrhoeae
  Range: 0.0075-8
Neisseria gonorrhoeae; unit assumed
  MIC50: 0.25 µg/mL (≈ 0.341 µM)
  MIC90: 1 µg/mL (≈ 1.36 µM)
Bacillus spp.; n=20, r6
  Range: 0.03-2
Bacillus spp.; n=20, r6, unit assumed
  MIC90: 2 µg/mL (≈ 2.73 µM)
Bacillus spp.; unit assumed
  MIC50: 0.25 µg/mL (≈ 0.341 µM)
Streptococcus pneumoniae; n=26, r129
  Range: 0.015-0.25
  MIC90: 0.06 µg/mL (≈ 0.0818 µM)
Streptococcus pneumoniae; n=50, r127
  Range: 0.015-0.06
  MIC90: 0.03 µg/mL (≈ 0.0409 µM)
Streptococcus pneumoniae; n=50, r130
  MIC90: 0.06 µg/mL (≈ 0.0818 µM)
Streptococcus pneumoniae; n=58, r125
  Range: 0.03-0.25
[6]; n=15, r108
  Range: 64
[6]; n=15, r108, unit assumed
  MIC50: 64 µg/mL (≈ 87.2 µM)
[6]; n=20, r110
  Range: 64
[6]; n=20, r110, unit assumed
  MIC50: 64 µg/mL (≈ 87.2 µM)
[6]; n=30, r112
  Range: 0.06-32
[6]; n=30, r112, unit assumed
  MIC50: 32 µg/mL (≈ 43.6 µM)
  MIC90: 32 µg/mL (≈ 43.6 µM)
Neisseria meningitidis
  Range: 0.5-8
Neisseria meningitidis; unit assumed
  MIC50: 1 µg/mL (≈ 1.36 µM)
  MIC90: 8 µg/mL (≈ 10.9 µM)
[7]; r13
  MIC50: 0.25 µg/mL (≈ 0.341 µM)
[7]; r15
  MIC50: 0.25 µg/mL (≈ 0.341 µM)
  MIC90: 1 µg/mL (≈ 1.36 µM)
Mycoplasma pneumoniae; n=10, r79
  Range: 0.06-8
Mycoplasma pneumoniae; n=10, r79, unit assumed
  MIC90: 0.06 µg/mL (≈ 0.0818 µM)
Mycoplasma pneumoniae; n=14, r80
  Range: 0.004-0.03
Mycoplasma pneumoniae; n=14, r80, unit assumed
  MIC50: 4 ng/mL (≈ 0.00545 µM)
  MIC90: 0.004 µg/mL (≈ 0.00545 µM)
Staphylococcus hominis
  MIC50: 64 µg/mL (≈ 87.2 µM)
Enterococcus faecium
  Range: 0.06-64
Enterococcus faecium; unit assumed
  MIC50: 1 µg/mL (≈ 1.36 µM)
Ureaplasma urealyticum; n=19, r138
  MIC50: 16 µg/mL (≈ 21.8 µM)
  MIC90: 32 µg/mL (≈ 43.6 µM)
Ureaplasma urealyticum; n=28, r137
  MIC50: 2 µg/mL (≈ 2.73 µM)
Borrelia burgdorferi
  MIC50: 0.03 µg/mL (≈ 0.0409 µM)
  MIC90: 0.06 µg/mL (≈ 0.0818 µM)
Listeria monocytogenes; n=13, r74
  Range: 0.5-1
  MIC50: 0.5 µg/mL (≈ 0.681 µM)
  MIC90: 0.5 µg/mL (≈ 0.681 µM)
Listeria monocytogenes; n=16, r75
  MIC50: 0.25 µg/mL (≈ 0.341 µM)
  MIC90: 1 µg/mL (≈ 1.36 µM)
Listeria monocytogenes; n=65, r76
  Range: 0.06-32
  MIC90: 32 µg/mL (≈ 43.6 µM)
Staphylococcus aureus; n=44, r92
  MIC90: 0.5 µg/mL (≈ 0.681 µM)
Staphylococcus aureus; n=100, r93
  MIC50: 0.5 µg/mL (≈ 0.681 µM)
  MIC90: 4 µg/mL (≈ 5.45 µM)
[8]
  Range: 0.5-8
[8]; unit assumed
  MIC50: 2 µg/mL (≈ 2.73 µM)
  MIC90: 4 µg/mL (≈ 5.45 µM)
